In ChEMBL document CHEMBL4346716, “Synthesis of novel andrographolide beckmann rearrangement derivatives and evaluation of their HK2-related anti-inflammatory activities” (Eur J Med Chem, 2019):
Values belong to the molecule of their own block, whether it stands above or below them.

Assays:
RAW264.7 = test: Antiinflammatory activity in mouse RAW264.7 cells assessed as inhibition of LPS-induced NO production preincubated for 3 hrs followed by LPS addition measured after 24 hrs by Griess assay; assay type: functional, cell-based
Hexokinase-2 = biological target: T1, Hexokinase-2 (Homo sapiens, UniProt P52789); test: Inhibition of recombinant human HK2 expressed in Escherichia coli BL21(DE3) using glucose as substrate preincubated for 10 mins followed by substrate addition in presence of ATP by G6PDH/NADP coupled assay
T1 sequence (P52789 whole entry): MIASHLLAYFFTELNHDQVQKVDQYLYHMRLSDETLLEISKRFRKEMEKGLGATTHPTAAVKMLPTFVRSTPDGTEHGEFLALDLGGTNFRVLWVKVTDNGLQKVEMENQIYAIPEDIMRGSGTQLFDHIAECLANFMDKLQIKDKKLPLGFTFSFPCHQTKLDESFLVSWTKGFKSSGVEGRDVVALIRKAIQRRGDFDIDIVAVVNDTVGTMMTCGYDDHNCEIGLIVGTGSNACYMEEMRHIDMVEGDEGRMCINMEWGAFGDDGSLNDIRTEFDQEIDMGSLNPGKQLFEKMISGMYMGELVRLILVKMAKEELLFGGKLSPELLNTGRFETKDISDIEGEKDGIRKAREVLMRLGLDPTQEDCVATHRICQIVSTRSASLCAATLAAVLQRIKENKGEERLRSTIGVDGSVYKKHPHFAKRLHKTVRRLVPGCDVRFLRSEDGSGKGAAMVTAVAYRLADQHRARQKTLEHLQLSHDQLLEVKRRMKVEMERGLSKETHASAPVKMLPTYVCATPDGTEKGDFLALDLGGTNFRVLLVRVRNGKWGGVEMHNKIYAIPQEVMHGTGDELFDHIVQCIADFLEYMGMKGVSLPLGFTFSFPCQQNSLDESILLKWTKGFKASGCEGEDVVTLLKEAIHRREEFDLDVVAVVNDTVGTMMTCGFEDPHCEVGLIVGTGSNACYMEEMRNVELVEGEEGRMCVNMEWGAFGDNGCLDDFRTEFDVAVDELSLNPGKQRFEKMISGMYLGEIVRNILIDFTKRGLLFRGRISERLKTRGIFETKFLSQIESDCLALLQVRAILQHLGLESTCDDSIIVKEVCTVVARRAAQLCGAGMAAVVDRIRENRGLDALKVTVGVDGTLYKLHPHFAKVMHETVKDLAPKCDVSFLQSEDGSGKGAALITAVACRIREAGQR

[1] = compound: C=C1CC[C@H]2[C@@](C)(CCC(=O)N[C@@]2(C)COC(=O)CCCC[C@@H]2CCSS2)[C@@H]1/C=C/C1=CCOC1=O; test: Non competitive inhibition of recombinant human HK2 expressed in Escherichia coli BL21(DE3) assessed as Vmax using 3.125 uM ATP as substrate by Lineweaver-Burk double reciprocal plot analysis (reference value: 0.019 OD/min)
[2] = compound: C=C1CC[C@H]2[C@@](C)(CCC(=O)N[C@@]2(C)COC(=O)CCCC[C@@H]2CCSS2)[C@@H]1/C=C/C1=CCOC1=O; test: Non competitive inhibition of recombinant human HK2 expressed in Escherichia coli BL21(DE3) assessed as Vmax using 6.25 uM ATP as substrate by Lineweaver-Burk double reciprocal plot analysis (reference value: 0.019 OD/min)
[3] = compound: C=C1CC[C@H]2[C@@](C)(CCC(=O)N[C@@]2(C)COC(=O)CCCC[C@@H]2CCSS2)[C@@H]1/C=C/C1=CCOC1=O; test: Non competitive inhibition of recombinant human HK2 expressed in Escherichia coli BL21(DE3) assessed as Vmax using 12.5 uM ATP as substrate by Lineweaver-Burk double reciprocal plot analysis (reference value: 0.019 OD/min)
[4] = compound: C=C1CC[C@H]2[C@@](C)(CCC(=O)N[C@@]2(C)COC(=O)CCCC[C@@H]2CCSS2)[C@@H]1/C=C/C1=CCOC1=O; test: Non competitive inhibition of recombinant human HK2 expressed in Escherichia coli BL21(DE3) assessed as Km using 3.125 uM ATP as substrate by Lineweaver-Burk double reciprocal plot analysis (reference value: 1.62 mM)
[5] = compound: C=C1CC[C@H]2[C@@](C)(CCC(=O)N[C@@]2(C)COC(=O)CCCC[C@@H]2CCSS2)[C@@H]1/C=C/C1=CCOC1=O; test: Non competitive inhibition of recombinant human HK2 expressed in Escherichia coli BL21(DE3) assessed as Km using 6.25 uM ATP as substrate by Lineweaver-Burk double reciprocal plot analysis (reference value: 1.62 mM)
[6] = compound: C=C1CC[C@H]2[C@@](C)(CCC(=O)N[C@@]2(C)COC(=O)CCCC[C@@H]2CCSS2)[C@@H]1/C=C/C1=CCOC1=O; test: Non competitive inhibition of recombinant human HK2 expressed in Escherichia coli BL21(DE3) assessed as Km using 12.5 uM ATP as substrate by Lineweaver-Burk double reciprocal plot analysis (reference value: 1.62 mM)
[7] = compound: C=C1CC[C@H]2[C@@](C)(CCC(=O)N[C@@]2(C)COC(=O)CCCC[C@@H]2CCSS2)[C@@H]1/C=C/C1=CCOC1=O; test: Non competitive inhibition of recombinant human HK2 expressed in Escherichia coli BL21(DE3) assessed as Vmax using 3.125 uM glucose as substrate by Lineweaver-Burk double reciprocal plot analysis (reference value: 0.012 OD/min)
[8] = compound: C=C1CC[C@H]2[C@@](C)(CCC(=O)N[C@@]2(C)COC(=O)CCCC[C@@H]2CCSS2)[C@@H]1/C=C/C1=CCOC1=O; test: Non competitive inhibition of recombinant human HK2 expressed in Escherichia coli BL21(DE3) assessed as Vmax using 6.25 uM glucose as substrate by Lineweaver-Burk double reciprocal plot analysis (reference value: 0.012 OD/min)
[9] = compound: C=C1CC[C@H]2[C@@](C)(CCC(=O)N[C@@]2(C)COC(=O)CCCC[C@@H]2CCSS2)[C@@H]1/C=C/C1=CCOC1=O; test: Non competitive inhibition of recombinant human HK2 expressed in Escherichia coli BL21(DE3) assessed as Vmax using 12.5 uM glucose as substrate by Lineweaver-Burk double reciprocal plot analysis (reference value: 0.012 OD/min)
[10] = compound: C=C1CC[C@H]2[C@@](C)(CCC(=O)N[C@@]2(C)COC(=O)CCCC[C@@H]2CCSS2)[C@@H]1/C=C/C1=CCOC1=O; test: Non competitive inhibition of recombinant human HK2 expressed in Escherichia coli BL21(DE3) assessed as Km using 3.125 uM glucose as substrate by Lineweaver-Burk double reciprocal plot analysis (reference value: 0.64 mM)
[11] = compound: C=C1CC[C@H]2[C@@](C)(CCC(=O)N[C@@]2(C)COC(=O)CCCC[C@@H]2CCSS2)[C@@H]1/C=C/C1=CCOC1=O; test: Non competitive inhibition of recombinant human HK2 expressed in Escherichia coli BL21(DE3) assessed as Km using 6.25 uM glucose as substrate by Lineweaver-Burk double reciprocal plot analysis (reference value: 0.64 mM)
[12] = compound: C=C1CC[C@H]2[C@@](C)(CCC(=O)N[C@@]2(C)COC(=O)CCCC[C@@H]2CCSS2)[C@@H]1/C=C/C1=CCOC1=O; test: Non competitive inhibition of recombinant human HK2 expressed in Escherichia coli BL21(DE3) assessed as Km using 12.5 uM glucose as substrate by Lineweaver-Burk double reciprocal plot analysis (reference value: 0.64 mM)

- IC50 (RAW264.7): > 50 µM
- IC50 (Hexokinase-2): > 50 µM
Molecule: C=C1CC[C@H]2[C@@](C)(CC[C@@H](OC(=O)[C@@H](N)Cc3ccccc3)[C@@]2(C)NC=O)[C@@H]1/C=C/C1=CCOC1=O

- IC50 (RAW264.7): > 50 µM
- IC50 (Hexokinase-2): > 50 µM
Molecule: C=C1CC[C@H]2[C@@](C)(CC[C@@H](OC(=O)c3cccnc3)[C@@]2(C)NC=O)[C@@H]1/C=C/C1=CCOC1=O

- IC50 (RAW264.7): > 50 µM
- IC50 (Hexokinase-2): > 50 µM
Molecule: C=C1CC[C@H]2[C@@](C)(CC[C@@H](O)[C@@]2(C)NC=O)[C@@H]1/C=C/C1=CCOC1=O

- IC50 (RAW264.7): > 50 µM
- IC50 (Hexokinase-2): > 50 µM
Molecule: C=C1CC[C@H]2[C@@](C)(CCC(=O)N[C@@]2(C)COC(=O)[C@H](N)CC(C)C)[C@@H]1/C=C/C1=CCOC1=O

- IC50 (RAW264.7): > 50 µM
- IC50 (Hexokinase-2): 4.8 µM
Molecule: C=C1CC[C@H]2[C@@](C)(CCC(=O)N[C@@]2(C)COC(=O)[C@H](N)Cc2ccccc2)[C@@H]1/C=C/C1=CCOC1=O

- IC50 (RAW264.7): > 50 µM
- IC50 (Hexokinase-2): > 50 µM
Molecule: C=C1CC[C@H]2[C@@](C)(CC[C@@H](OC(=O)CNC)[C@@]2(C)NC=O)[C@@H]1/C=C/C1=CCOC1=O

- IC50 (RAW264.7): > 50 µM
- IC50 (Hexokinase-2): > 50 µM
Molecule: C=C1CC[C@H]2[C@@](C)(CCC(=O)N[C@@]2(C)COC(=O)c2cccnc2)[C@@H]1/C=C/C1=CCOC1=O

- IC50 (RAW264.7): > 50 µM
- IC50 (Hexokinase-2): > 50 µM
Molecule: C=C1CC[C@H]2[C@@](C)(CCC(=O)N[C@@]2(C)COC(=O)c2ccccc2[N+](=O)[O-])[C@@H]1/C=C/C1=CCOC1=O

- IC50 (RAW264.7): > 50 µM
- IC50 (Hexokinase-2): > 50 µM
Molecule: C=C1CC[C@H]2[C@@](C)(CC[C@@H](OC(=O)CCCC[C@@H]3CCSS3)[C@@]2(C)NC=O)[C@@H]1/C=C/C1=CCOC1=O

- IC50 (RAW264.7): > 50 µM
- IC50 (Hexokinase-2): > 50 µM
Molecule: C=C1CC[C@H]2[C@@](C)(CC[C@@H](OC(=O)c3ccccc3[N+](=O)[O-])[C@@]2(C)NC=O)[C@@H]1/C=C/C1=CCOC1=O

- IC50 (RAW264.7): > 50 µM
- IC50 (Hexokinase-2): > 50 µM
Molecule: C=C1CC[C@H]2[C@@](C)(CCC(=O)N[C@@]2(C)CO)[C@@H]1/C=C/C1=CCOC1=O

- IC50 (RAW264.7): 33.5 µM
- IC50 (Hexokinase-2): > 50 µM
Molecule: C=C1CC[C@H]2[C@@](C)(CCC(=O)N[C@@]2(C)COC(=O)c2ccc([N+](=O)[O-])cc2)[C@@H]1/C=C/C1=CCOC1=O

- IC50 (RAW264.7): > 50 µM
- IC50 (Hexokinase-2): > 50 µM
Molecule: C=C1CC[C@H]2[C@@](C)(CCC(=O)N[C@@]2(C)COC(=O)[C@@H]2CCCN2)[C@@H]1/C=C/C1=CCOC1=O

- IC50 (RAW264.7): 50 µM
- IC50 (Hexokinase-2): > 50 µM
Molecule: C=C1CC[C@H]2[C@@](C)(CC[C@@H](OC(=O)c3ccccc3)[C@@]2(C)NC=O)[C@@H]1/C=C/C1=CCOC1=O

- IC50 (RAW264.7): > 50 µM
- IC50 (Hexokinase-2): > 50 µM
Molecule: C=C1CC[C@H]2[C@@](C)(CCC(=O)N[C@@]2(C)COC(=O)c2ccccc2)[C@@H]1/C=C/C1=CCOC1=O

- IC50 (RAW264.7): 52.4 µM
Molecule: C[C@]12CCC(=O)C=C1CC[C@@H]1[C@@H]2[C@@H](O)C[C@@]2(C)[C@H]1CC[C@]2(O)C(=O)CO [HYDROCORTISONE]

- IC50 (RAW264.7): > 50 µM
- IC50 (Hexokinase-2): > 50 µM
Molecule: C=C1CC[C@H]2[C@@](C)(CC[C@@H](OC(=O)CN)[C@@]2(C)NC=O)[C@@H]1/C=C/C1=CCOC1=O

- IC50 (RAW264.7): > 50 µM
- IC50 (Hexokinase-2): > 50 µM
Molecule: C=C1CC[C@H]2[C@@](C)(CC[C@@H](OC(=O)c3ccc([N+](=O)[O-])cc3)[C@@]2(C)NC=O)[C@@H]1/C=C/C1=CCOC1=O

- IC50 (RAW264.7): > 50 µM
- IC50 (Hexokinase-2): 26.1 µM
Molecule: C=C1CC[C@H]2[C@@](C)(CC[C@@H](OC(=O)[C@H]3CCCN3)[C@@]2(C)NC=O)[C@@H]1/C=C/C1=CCOC1=O

- IC50 (RAW264.7): 14.4 µM
- IC50 (Hexokinase-2): > 50 µM
Molecule: C=C1CC[C@@H]2[C@](C)(CO)[C@H](O)CC[C@@]2(C)[C@@H]1C/C=C1/C(=O)OC[C@H]1O [ANDROGRAPHOLIDE]

- IC50 (RAW264.7): > 50 µM
- IC50 (Hexokinase-2): > 50 µM
Molecule: C=C1CC[C@H]2[C@@](C)(CC[C@@H](OC(=O)C(N)CC(C)C)[C@@]2(C)NC=O)[C@@H]1/C=C/C1=CCOC1=O (single isomer, unassigned)

B1: Hexokinase-2 (Homo sapiens), P52789 (protein)
chain: T1 sequence (P52789 whole entry)
- Vmax (optical density/minute) [1]: 0.012
- Vmax (optical density/minute) [2]: 0.007
- Vmax (optical density/minute) [3]: 0.005
- Km [4]: 1280 µM
- Km [5]: 1280 µM
- Km [6]: 1210 µM
- Vmax (optical density/minute) [7]: 0.007
- Vmax (optical density/minute) [8]: 0.005
- Vmax (optical density/minute) [9]: 0.004
- Km [10]: 685 µM
- Km [11]: 695 µM
- Km [12]: 657 µM
